For assay [1], the system named is experimental allergic encephalomyelitis model. To be noted: model for multiple sclerosis; cited from earlier work.
A further assay deals with adjuvant arthritis model. The conditions noted are these: model for rheumatoid arthritis; cited from earlier work.
For another assay, the system named is Candida albicans. The conditions noted are these: particularly against Candida albicans, both in vitro and in vivo; cited from earlier work.
Another assay deals with IgE-like antibodies. To be noted: in vivo; cited from earlier work.
The conditions of assay [2]: alone; U.S. Pat. No. 4,885,171; cited from earlier work.
The subject of the next assay is U87MG Human Glioblastoma. Put plainly: U87MG human glioblastoma 3H thymidine incorporation. In kind it is cell-based. Here is the method: U87MG Human Glioblastoma (ATCC # HTB-14)
3H Thymidine Incorporation Protocol
BRL Minimum Essential Medium with Earle Salts (500 ml)
+5 mLBRL MEM Non-Essential Amino Acids (10 mM)
+5 mLBRL Penicillin-Streptomycin
+5 mLBRL Na Pyruvate Solution (100 mM)
+5 mLBRL L-Glutamine 200 mM
+50 mLBRL Fetal Bovine Serum (Qualified)
1. Cells were trypsinized and plated at a concentration of 10^4 cells/well in a final volume of 200 μl growth medium in 96-well flat bottom plates and allowed to adhere for 24 hours at 37° C.
2. The media was removed by aspiration with care to not disturb the cell monolayer. 200 μl of fresh growth media was added per well, allowing enough wells for samples to be run in triplicate. Compounds were added in 10 μl PBS solutions and incubated for another 48 hours at 37° C.
3. During the last 5 hours of incubation, plates were labeled with 1 μCi 3H thymidine per well. (NEN thymidine, catalog # NET-027, 6.7 Ci/mmole). The 1 μCi was added in 10 μl of PBS (on the day of harvest.). The plates were returned to the incubator for the last 5 hours.
4. The radioactive media was removed by aspiration, with care not to disturb the cell monolayer. 50 μl of BRL 10×Trypsin was added to each well, followed by incubation at 37° C. for 10 minutes or until the monolayer was loosened from the well bottom. […] Mats were counted in a Wallac Betaplate counter.
For orientation: Incorporation of labelled thymidine or its analogues reports DNA synthesis.

The conditions of assay [3]: U.S. Pat. No. 5,665,772; cited from earlier work.

≈ marks a conversion by molar mass, not a printed value.

One may read the IC50 as the midpoint of a concentration-inhibition curve. High values mean a need for much substance, low ones inhibition by little substance.

For `CO[C@H]1C[C@@H]2CC[C@@H](C)[C@@](O)(O2)C(=O)C(=O)N2CCCC[C@H]2C(=O)O[C@H]([C@H](C)C[C@@H]2CC[C@@H](O)[C@H](OC)C2)CC(=O)[C@H](C)/C=C(\C)[C@@H](O)[C@@H](OC)C(=O)[C@H](C)C[C@H](C)/C=C/C=C/C=C/1C` [Rapamycin], the “effect in the experimental allergic encephalomyelitis model” value in assay [1] is on record as “effective”. Besides, the “effect in the adjuvant arthritis model” value in the assay with adjuvant arthritis model was “effective”. Moreover, the antifungal activity result in the assay with Candida albicans was “found to have antifungal activity”. Moreover, in the assay with IgE-like antibodies, the “inhibition of the formation of IgE-like antibodies” value is “effectively inhibited”. The antitumor activity result in assay [2] was “shown to have antitumor activity”. In the assay with U87MG Human Glioblastoma (Homo sapiens, U-87 MG), half-maximal inhibition (IC50) was put at 0.5 ng/mL (≈ 0.547 nM).
Compound `CO[C@H]1C[C@@H]2CC[C@@H](C)[C@@](O)(O2)C(=O)C(=O)N2CCCC[C@H]2C(=O)O[C@H]([C@H](C)C[C@@H]2CC[C@@H](OCCO)[C@H](OC)C2)CC(=O)[C@H](C)/C=C(\C)[C@@H](O)[C@@H](OC)C(=O)[C@H](C)C[C@H](C)/C=C/C=C/C=C/1C` [SDZ-RAD, 40-O-(2-hydroxy)ethyl-rapamycin] gave an IC50 with U87MG Human Glioblastoma (3H thymidine incorporation, 48 hours incubation, 37° C., U87MG) of 2.0 ng/mL (≈ 2.09 nM). Also, the “immunosuppressive activity in animal model” value in assay [3] is listed as “has immunosuppressive activity”.

Values taken from patent US6331547A, “Water soluble SDZ RAD esters” (American Home Products Corporation, priority 2000, dated 2001).
